Results as given in US20250242040A1, “ALBUMIN CONJUGATE, PREPARATION METHOD THEREFOR AND USE THEREOF” (Suzhou KangDeRui Pharmaceutical, Ltd., priority 2023, published 2025).
Non-standard residues stand in square brackets, D forms with d. Residues, ends and D or L forms follow the SMILES beside them. Dolaproine = CO[C@@H]([C@@H]1CCCN1)[C@@H](C)C(=O)O; Dil = CC[C@H](C)[C@H](NC)[C@@H](CC(=O)O)OC; NMeV = CN[C@H](C(=O)O)C(C)C

Test system: A-549 cells
Assay: Apoptosis assay of A-549 cells by flow cytometry (in vitro cytotoxic activity)
Format: cell-based
Procedure: The apoptosis of A-549 cells was analyzed by flow cytometry (FIG. 2).

Compound: CC[C@H](C)[C@@H]([C@@H](CC(=O)N1CCC[C@H]1[C@H](OC)[C@@H](C)C(=O)N[C@@H](Cc1ccccc1)C(=O)O)OC)N(C)C(=O)[C@@H](NC(=O)[C@@H](NC)C(C)C)C(C)C [MMAF, monomethyl auristatin F] (H-[NMeV]V[Dil][Dolaproine]F-OH)
- apoptosis efficiency: 12.3%
